In publication PMC12692861, “Biotin-Linked Ursolic Acid Conjugates as Selective Anticancer Agents and Target-Identification Tools for Cancer Therapy” (Molecules, 2025):

How the values were obtained:
Assay in all cases: Streptavidin pulldown proteomics (LC-MS/MS), MB49 cells
Assay type in all cases: binding, murine
Details in all cases: MB-49, 50 µM
[1] = target: ATP synthase subunit O (Mus musculus, UniProt Q9DB20)
Protocol: (§1) We used proteomics to identify potential molecular targets of 5c. A pulldown assay with streptavidin-agarose-coated magnetic beads was performed. Briefly, 5637 and MB49 cells were incubated with 50 µM 5c for 10 min and 1 h. After incubation, the cells were rinsed three times with cold phosphate-buffered saline (PBS), and cell lysates were prepared and clarified by centrifugation to remove cellular debris, including nuclei. The clarified lysates were incubated with streptavidin-coated magnetic beads to selectively bind biotinylated contents. Bound proteins were separated from unbound proteins through thorough bead washing. Proteins attached to the beads were eluted and analyzed on an Orbitrap Fusion Tribrid mass spectrometer (Thermo Scientific, New York, NY, USA) coupled with an Ultimate 3000 nano-UPLC system. Samples were trapped on a PepMap100 C18 trap column (5 µm, 0.3 × 5 mm) and separated on a PepMap RSLC C18 column (2 µm, 75 µm × 150 mm) using a gradient from 2 to 40% acetonitrile with 0.1% formic acid over 120 min at […] and 40 °C. MS data were acquired in positive mode using data-dependent acquisition (DDA), with precursor scans at 120,000 FWHM (400–2000 m/z), and MS/MS scans in top-speed mode (3 s cycle) using HCD fragmentation (NCE 32%). Proteins were identified and quantified based on peptide spectral matches (PSMs), and fold enrichment compared to controls was calculated to evaluate interaction strength.
(§2) The 5637 and MB49 cells were cultured and treated with higher concentrations of 5c (50 µM) for short period of times (10 min & 60 min) followed by whole cell lysis (WCL) preparation of both treated and untreated cells using modified RIPA buffer [NaCl (100mM), TrisCl (20mM, pH 7.4), EDTA (10 mM), TritonX-100 (0.5%), Glycerol (5%), Protease inhibitor cocktail (1x)] with gentle continuous rotation. The protein content of each WCL was estimated using Pierce™ BCA Protein Assay kit (Thermo-Scientific # 23225). The 100 µL of resuspended Dynabeads™ MyOne™ Streptavidin C1 (Invitrogen # 65001) were washed with PBST (PBS with 0.01% Tween™20) in a magnet stand as recommended in the manufacturer’s instructions. The washed beads were incubated with 200 µg of each WCL in separate tubes at room temperature for 2 h in a gentle end-over-end mixing. After incubation, beads were washed 3–5 times with PBST (0.01% Tween-20) on a magnetic stand and beads were decanted by after spinning and magnetization. The samples were stored at −80 °C till further analysis using LC-MS/MS by the Proteomics and Mass Spectrometry Core Laboratory of Augusta University.

[2] = target: ATP synthase subunit beta (Mus musculus, UniProt P56480)
Protocol: as §1, §2

[3] = target: D-3-phosphoglycerate dehydrogenase (Mus musculus, UniProt Q61753)
Protocol: as §1, §2

[4] = tested on: DNA topoisomerase
Protocol: as §1, §2

[5] = target: Elongation factor 1-beta (EF1β) (Mus musculus, UniProt O70251)
Protocol: as §1, §2

[6] = target: Elongation factor 1-delta (EF1δ) (Mus musculus, UniProt P57776)
Protocol: as §1, §2

[7] = target: Elongation factor 1-gamma (EF1γ) (Mus musculus, UniProt Q9D8N0)
Protocol: as §1, §2

[8] = target: Elongation factor 2 (eEF2) (Mus musculus, UniProt P58252)
Protocol: as §1, §2

[9] = target: Eukaryotic translation initiation factor 5B (eIF5B) (Mus musculus, UniProt Q05D44)
Protocol: as §1, §2

[10] = target: Filamin-A (FLNA) (Mus musculus, UniProt Q8BTM8)
Protocol: as §1, §2

[11] = target: HSC 71 (Mus musculus, UniProt P63017)
Protocol: as §1, §2

[12] = target: HSP 90-alpha (HSP90α) (Mus musculus, UniProt P07901)
Protocol: as §1, §2

[13] = target: HSP 90-beta (HSP90β) (Mus musculus, UniProt P11499)
Protocol: as §1, §2

[14] = target: Heterogeneous nuclear ribonucleoprotein U (HNRNPU) (Mus musculus, UniProt Q8VEK3)
Protocol: as §1, §2

[15] = target: Histone H2A type 2-C (HIST2H2AC) (Mus musculus, UniProt Q64523)
Protocol: as §1, §2

[16] = target: Histone H2B type 1-M (Mus musculus, UniProt P10854)
Protocol: as §1, §2

[17] = target: Histone H4 (Mus musculus, UniProt P62806)
Protocol: as §1, §2

[18] = target: Ras GTPase-activating-like protein IQGAP1 (Mus musculus, UniProt Q9JKF1)
Protocol: as §1, §2

[19] = target: Receptor of activated protein C kinase 1 (RACK1) (Mus musculus, UniProt P68040)
Protocol: as §1, §2

[20] = target: Ribosomal L1 domain-containing protein 1 (RSL1D1) (Mus musculus, UniProt Q8BVY0)
Protocol: as §1, §2

[21] = tested on: Splicing factor U2AF 65 kDa subunit (U2AF65)
Protocol: as §1, §2

HSC 71, sequence (P63017 whole entry): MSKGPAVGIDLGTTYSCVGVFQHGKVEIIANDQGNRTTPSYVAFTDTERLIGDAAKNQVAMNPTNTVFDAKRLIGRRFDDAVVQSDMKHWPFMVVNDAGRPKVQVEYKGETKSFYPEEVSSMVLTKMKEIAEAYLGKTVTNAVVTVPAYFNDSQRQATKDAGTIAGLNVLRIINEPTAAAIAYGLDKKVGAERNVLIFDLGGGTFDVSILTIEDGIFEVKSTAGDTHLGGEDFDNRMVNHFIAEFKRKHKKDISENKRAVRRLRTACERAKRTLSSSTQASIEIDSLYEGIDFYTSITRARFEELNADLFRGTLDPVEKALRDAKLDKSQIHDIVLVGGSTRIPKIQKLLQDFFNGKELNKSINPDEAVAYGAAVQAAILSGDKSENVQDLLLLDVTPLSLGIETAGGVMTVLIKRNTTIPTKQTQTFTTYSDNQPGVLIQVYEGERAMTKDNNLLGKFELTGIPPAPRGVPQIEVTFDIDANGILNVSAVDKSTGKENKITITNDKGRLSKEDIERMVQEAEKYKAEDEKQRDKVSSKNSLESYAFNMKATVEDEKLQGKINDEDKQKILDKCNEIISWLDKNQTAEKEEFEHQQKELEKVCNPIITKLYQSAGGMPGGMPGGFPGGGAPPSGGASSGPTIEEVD
Ribosomal L1 domain-containing protein 1 (RSL1D1), sequence (Q8BVY0 whole entry, the tested form may be a part): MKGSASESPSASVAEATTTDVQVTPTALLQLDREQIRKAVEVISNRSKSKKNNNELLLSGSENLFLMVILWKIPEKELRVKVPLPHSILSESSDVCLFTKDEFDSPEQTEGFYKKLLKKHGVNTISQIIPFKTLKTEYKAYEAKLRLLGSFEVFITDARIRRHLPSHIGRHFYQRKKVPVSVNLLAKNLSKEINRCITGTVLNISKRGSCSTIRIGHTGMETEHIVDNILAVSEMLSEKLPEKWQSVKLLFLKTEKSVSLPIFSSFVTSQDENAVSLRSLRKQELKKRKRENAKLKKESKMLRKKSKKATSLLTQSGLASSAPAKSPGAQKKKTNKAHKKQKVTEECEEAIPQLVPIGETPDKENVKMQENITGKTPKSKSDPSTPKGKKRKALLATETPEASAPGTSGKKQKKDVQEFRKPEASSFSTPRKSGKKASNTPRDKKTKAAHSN
Filamin-A (FLNA), sequence (Q8BTM8 whole entry): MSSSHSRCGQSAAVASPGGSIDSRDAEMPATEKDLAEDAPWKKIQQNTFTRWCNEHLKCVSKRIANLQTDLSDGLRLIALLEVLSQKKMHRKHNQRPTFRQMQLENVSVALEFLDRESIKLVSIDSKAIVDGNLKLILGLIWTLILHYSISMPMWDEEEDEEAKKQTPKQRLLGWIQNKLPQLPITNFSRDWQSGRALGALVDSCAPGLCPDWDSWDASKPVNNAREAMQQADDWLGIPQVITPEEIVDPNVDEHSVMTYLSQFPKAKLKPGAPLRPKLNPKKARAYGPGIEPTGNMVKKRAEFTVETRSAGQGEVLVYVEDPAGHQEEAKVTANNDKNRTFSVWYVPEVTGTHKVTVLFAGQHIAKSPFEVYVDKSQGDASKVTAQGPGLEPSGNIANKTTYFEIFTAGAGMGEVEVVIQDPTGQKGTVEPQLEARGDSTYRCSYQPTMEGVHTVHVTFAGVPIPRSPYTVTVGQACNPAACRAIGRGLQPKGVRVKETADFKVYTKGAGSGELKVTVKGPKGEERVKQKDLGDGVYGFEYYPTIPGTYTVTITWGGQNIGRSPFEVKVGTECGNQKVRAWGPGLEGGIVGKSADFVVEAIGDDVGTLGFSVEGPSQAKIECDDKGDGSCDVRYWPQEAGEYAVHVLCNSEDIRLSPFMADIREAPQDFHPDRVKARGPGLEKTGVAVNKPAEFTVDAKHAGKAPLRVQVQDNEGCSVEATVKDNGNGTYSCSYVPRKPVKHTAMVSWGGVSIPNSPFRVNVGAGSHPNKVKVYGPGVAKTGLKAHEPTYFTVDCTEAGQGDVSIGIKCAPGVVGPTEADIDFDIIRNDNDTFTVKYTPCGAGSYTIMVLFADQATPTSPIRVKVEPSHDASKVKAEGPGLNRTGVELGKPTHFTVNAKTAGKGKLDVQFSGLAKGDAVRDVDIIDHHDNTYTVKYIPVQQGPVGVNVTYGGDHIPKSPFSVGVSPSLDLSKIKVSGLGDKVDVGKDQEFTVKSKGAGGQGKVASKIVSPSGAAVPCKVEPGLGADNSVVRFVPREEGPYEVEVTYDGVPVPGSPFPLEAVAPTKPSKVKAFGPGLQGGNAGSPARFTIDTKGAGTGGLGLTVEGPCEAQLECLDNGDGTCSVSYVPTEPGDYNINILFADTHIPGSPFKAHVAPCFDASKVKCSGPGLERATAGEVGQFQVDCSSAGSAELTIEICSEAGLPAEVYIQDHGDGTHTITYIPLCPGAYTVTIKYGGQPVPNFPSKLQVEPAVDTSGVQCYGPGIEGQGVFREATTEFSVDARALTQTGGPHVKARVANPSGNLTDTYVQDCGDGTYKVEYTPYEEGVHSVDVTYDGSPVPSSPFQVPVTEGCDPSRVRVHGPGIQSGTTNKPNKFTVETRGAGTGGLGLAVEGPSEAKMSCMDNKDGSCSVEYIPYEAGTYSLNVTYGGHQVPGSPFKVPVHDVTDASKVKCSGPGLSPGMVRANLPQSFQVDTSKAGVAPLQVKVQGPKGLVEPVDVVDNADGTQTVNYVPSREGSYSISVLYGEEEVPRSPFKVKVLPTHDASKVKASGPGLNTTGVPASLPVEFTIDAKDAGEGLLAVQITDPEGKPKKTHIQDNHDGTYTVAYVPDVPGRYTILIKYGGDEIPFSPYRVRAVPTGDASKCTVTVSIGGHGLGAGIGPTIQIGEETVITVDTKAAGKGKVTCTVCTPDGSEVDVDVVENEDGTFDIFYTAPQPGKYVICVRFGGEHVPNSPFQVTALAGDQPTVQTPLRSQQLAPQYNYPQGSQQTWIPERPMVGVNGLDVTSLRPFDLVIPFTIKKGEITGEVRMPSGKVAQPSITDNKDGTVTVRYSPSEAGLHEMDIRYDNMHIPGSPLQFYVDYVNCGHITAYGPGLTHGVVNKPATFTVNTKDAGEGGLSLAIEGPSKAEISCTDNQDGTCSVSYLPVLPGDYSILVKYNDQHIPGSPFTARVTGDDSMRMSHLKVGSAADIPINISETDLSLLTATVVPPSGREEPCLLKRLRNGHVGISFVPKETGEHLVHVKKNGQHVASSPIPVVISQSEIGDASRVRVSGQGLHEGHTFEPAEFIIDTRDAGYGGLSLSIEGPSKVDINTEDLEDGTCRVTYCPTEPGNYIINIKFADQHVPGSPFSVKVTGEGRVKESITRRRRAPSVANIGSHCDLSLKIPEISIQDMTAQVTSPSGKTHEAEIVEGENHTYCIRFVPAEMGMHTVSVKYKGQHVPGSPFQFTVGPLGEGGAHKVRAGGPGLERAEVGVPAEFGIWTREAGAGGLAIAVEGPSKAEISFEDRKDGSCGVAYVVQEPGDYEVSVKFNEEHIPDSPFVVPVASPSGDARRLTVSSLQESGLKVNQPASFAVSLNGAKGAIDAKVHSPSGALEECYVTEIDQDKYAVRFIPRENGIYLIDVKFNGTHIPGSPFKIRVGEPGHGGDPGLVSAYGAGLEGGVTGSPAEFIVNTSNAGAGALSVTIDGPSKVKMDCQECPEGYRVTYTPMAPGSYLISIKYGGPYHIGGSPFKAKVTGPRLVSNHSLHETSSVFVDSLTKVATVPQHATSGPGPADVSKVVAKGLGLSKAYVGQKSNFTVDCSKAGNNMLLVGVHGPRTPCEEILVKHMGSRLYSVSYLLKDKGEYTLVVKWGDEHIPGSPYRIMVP
ATP synthase subunit O, sequence (Q9DB20 24-213): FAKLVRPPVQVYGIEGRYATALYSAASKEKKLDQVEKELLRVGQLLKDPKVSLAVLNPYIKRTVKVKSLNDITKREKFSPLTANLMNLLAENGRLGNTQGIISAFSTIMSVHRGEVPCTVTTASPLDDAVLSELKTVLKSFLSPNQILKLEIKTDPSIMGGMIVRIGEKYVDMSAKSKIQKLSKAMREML
HSP 90-beta (HSP90β), sequence (P11499 whole entry): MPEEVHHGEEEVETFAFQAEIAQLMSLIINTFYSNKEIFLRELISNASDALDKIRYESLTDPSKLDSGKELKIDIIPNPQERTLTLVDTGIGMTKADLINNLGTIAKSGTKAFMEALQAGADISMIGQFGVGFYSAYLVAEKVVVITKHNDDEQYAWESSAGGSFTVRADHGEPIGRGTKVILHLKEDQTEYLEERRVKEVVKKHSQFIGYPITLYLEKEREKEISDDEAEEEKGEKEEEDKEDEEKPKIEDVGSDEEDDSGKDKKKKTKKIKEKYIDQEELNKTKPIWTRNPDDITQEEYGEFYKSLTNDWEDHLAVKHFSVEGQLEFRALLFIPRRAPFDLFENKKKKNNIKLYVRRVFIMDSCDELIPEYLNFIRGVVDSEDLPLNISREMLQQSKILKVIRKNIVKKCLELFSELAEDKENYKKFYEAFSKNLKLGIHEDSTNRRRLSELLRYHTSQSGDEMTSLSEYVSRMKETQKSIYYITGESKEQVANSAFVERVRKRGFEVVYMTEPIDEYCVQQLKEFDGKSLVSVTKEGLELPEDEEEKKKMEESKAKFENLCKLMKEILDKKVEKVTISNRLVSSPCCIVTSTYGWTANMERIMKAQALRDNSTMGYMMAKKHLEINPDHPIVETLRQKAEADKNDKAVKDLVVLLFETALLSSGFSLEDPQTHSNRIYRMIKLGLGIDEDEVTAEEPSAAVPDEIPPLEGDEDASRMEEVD
Elongation factor 1-beta (EF1β), sequence (O70251 whole entry): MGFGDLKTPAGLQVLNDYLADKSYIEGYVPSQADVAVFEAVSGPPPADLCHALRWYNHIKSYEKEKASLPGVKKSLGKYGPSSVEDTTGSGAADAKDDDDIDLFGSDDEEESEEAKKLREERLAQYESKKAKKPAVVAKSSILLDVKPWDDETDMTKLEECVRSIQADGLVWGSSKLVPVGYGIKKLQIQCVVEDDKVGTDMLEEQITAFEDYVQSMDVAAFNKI

Question: With CC1CCC2(C(=O)OCCCCOC(=O)CCCCC3SCC4NC(=O)NC43)CCC3(C)C(=CCC4C5(C)CCC(O)C(C)(C)C5CCC43C)C2C1C [Compound 5c, 4-((5-((3aS,4S,6aR)-2-Oxohexahydro-1H-thieno [3,4-d]imidazol-4-yl)pentanoyl)oxy) butyl 3-hydroxy-urs-12-en-28-oate] as the compound, how does the “Fold Change 10 min/Ctrl” value [1] read?
Answer: 4

Question: What about the “Fold Change 1 h/Ctrl” value [1] of the same compound?
Answer: 5

Question: And the “Fold Change 10 min/Ctrl” value [2]?
Answer: 1.31

Question: What about the “Fold Change 1 h/Ctrl” value [2] of the same compound?
Answer: 1.82

Question: And the “Fold Change 10 min/Ctrl” value [3]?
Answer: 0.8

Question: What about the “Fold Change 1 h/Ctrl” value [3] of the same compound?
Answer: 1.6

Question: And the “Fold Change 10 min/Ctrl” value [4]?
Answer: 1

Question: And the “Fold Change 1 h/Ctrl” value [4]?
Answer: 1.75

Question: What about the “Fold Change 10 min/Ctrl” value [5] of the same compound?
Answer: 5

Question: What about the “Fold Change 1 h/Ctrl” value [5] of the same compound?
Answer: 5

Question: What about the “Fold Change 10 min/Ctrl” value [6] of the same compound?
Answer: 1.4

Question: And the “Fold Change 1 h/Ctrl” value [6]?
Answer: 2

Question: And the “Fold Change 1 h/Ctrl” value [7]?
Answer: 1

Question: What about the “Fold Change 10 min/Ctrl” value [8] of the same compound?
Answer: 3

Question: And the “Fold Change 1 h/Ctrl” value [8]?
Answer: 2

Question: What about the “Fold Change 10 min/Ctrl” value [9] of the same compound?
Answer: 3

Question: What about the “Fold Change 1 h/Ctrl” value [9] of the same compound?
Answer: 2.75

Question: What about the “Fold Change 10 min/Ctrl” value [10] of the same compound?
Answer: 3.33

Question: What about the “Fold Change 1 h/Ctrl” value [10] of the same compound?
Answer: 4

Question: What about the “Fold Change 10 min/Ctrl” value [11] of the same compound?
Answer: 1.5

Question: What about the “Fold Change 1 h/Ctrl” value [11] of the same compound?
Answer: 2

Question: What about the “Fold Change 10 min/Ctrl” value [12] of the same compound?
Answer: 1.07

Question: And the “Fold Change 1 h/Ctrl” value [12]?
Answer: 1.25

Question: What about the “Fold Change 10 min/Ctrl” value [13] of the same compound?
Answer: 1.40

Question: And the “Fold Change 1 h/Ctrl” value [13]?
Answer: 1.71

Question: What about the “Fold Change 10 min/Ctrl” value [14] of the same compound?
Answer: 2.38

Question: What about the “Fold Change 1 h/Ctrl” value [14] of the same compound?
Answer: 2.13

Question: And the “Fold Change 10 min/Ctrl” value [15]?
Answer: 1.58

Question: What about the “Fold Change 1 h/Ctrl” value [15] of the same compound?
Answer: 1.27

Question: What about the “Fold Change 10 min/Ctrl” value [16] of the same compound?
Answer: 2.04

Question: What about the “Fold Change 1 h/Ctrl” value [16] of the same compound?
Answer: 1.81

Question: And the “Fold Change 10 min/Ctrl” value [17]?
Answer: 1.64

Question: And the “Fold Change 1 h/Ctrl” value [17]?
Answer: 1.18

Question: And the “Fold Change 10 min/Ctrl” value [18]?
Answer: 1

Question: What about the “Fold Change 1 h/Ctrl” value [18] of the same compound?
Answer: 3

Question: And the “Fold Change 10 min/Ctrl” value [19]?
Answer: 0.88

Question: And the “Fold Change 1 h/Ctrl” value [19]?
Answer: 1.29

Question: What about the “Fold Change 10 min/Ctrl” value [20] of the same compound?
Answer: 1.33

Question: What about the “Fold Change 1 h/Ctrl” value [20] of the same compound?
Answer: 1.56

Question: And the “Fold Change 10 min/Ctrl” value [21]?
Answer: 4

Question: And the “Fold Change 1 h/Ctrl” value [21]?
Answer: 3
